Measurements as given in ChEMBL document CHEMBL4028815, “Novel phosphonate analogs of sulforaphane: Synthesis, in vitro and in vivo anticancer activity” (Eur J Med Chem, 2017).
Active and inactive are the calls of the source. The rule behind the calls is not given here.

What was measured:
[1] = Cytotoxicity against human LoVo/DX cells assessed as cell death at >15 uM after 24 hrs; format: cell-based
[2] = test system: LoVo; assay: Potency index, ratio of sulforaphane IC50 to compound IC50 for human LoVo cells; format: functional
[3] = test system: LoVo; assay: Potency index, ratio of benzyl isothiocyanate IC50 to compound IC50 for human LoVo cells; format: functional
[4] = test system: HL-60; assay: Cytotoxicity against human HL60 cells after 72 hrs by sulforhodamine B assay; format: functional, cell-based; conditions: HL-60, 72 h
[5] = test system: HL60/MX2; assay: Cytotoxicity against human HL60/MX2 cells after 72 hrs by sulforhodamine B assay; format: functional, cell-based; conditions: HL60/MX2, 72 h
[6] = Resistance index, ratio of IC50 for human HL60/MX2 cells to IC50 for human HL60 cells; format: functional
[7] = test system: LoVo; assay: Cytotoxicity against human LoVo cells after 72 hrs by sulforhodamine B assay; format: functional, cell-based
[8] = Cytotoxicity against human LoVo/DX cells after 72 hrs by sulforhodamine B assay; format: functional, cell-based
[9] = Resistance index, ratio of IC50 for human LoVo/DX cells to IC50 for human LoVo cells; format: functional
[10] = test system: BALB/3T3; assay: Cytotoxicity against mouse BALB/3T3 cells after 72 hrs by sulforhodamine B assay; format: cell-based; conditions: BALB/3T3, 72 h
[11] = test system: A549; assay: Cytotoxicity against human A549 cells after 72 hrs by sulforhodamine B assay; format: functional, cell-based; conditions: A549, 72 h
[12] = test system: 4T1; assay: Cytotoxicity against mouse 4T1 cells after 72 hrs by sulforhodamine B assay; format: functional, cell-based; conditions: 4T1, 72 h
[13] = test system: MES-SA; assay: Cytotoxicity against human MESSA cells after 72 hrs by sulforhodamine B assay; format: functional, cell-based
[14] = test system: MES-SA/Dx5; assay: Cytotoxicity against human MESSA/DX5 cells after 72 hrs by sulforhodamine B assay; format: functional, cell-based; conditions: MES-SA/Dx5, 72 h
[15] = test system: LoVo; assay: Cell cycle arrest in human LoVo cells at 15 uM after 24 hrs by propidium iodide staining based flow cytometric method; format: functional
[16] = test system: LoVo/DX; assay: Cell cycle arrest in human LoVo/DX cells at 15 uM after 24 hrs by propidium iodide staining based flow cytometric method; format: functional
[17] = Induction of apoptosis in human LoVo/DX cells assessed as increase in caspase3/7 activity at 15 uM using Ac-DEVD-ACC as substrate pretreated for 24 hrs followed by substrate addition measured for 2 hrs by fluorescence assay relative to control; format: functional
[18] = test system: LoVo; assay: Induction of apoptosis in human LoVo cells assessed as increase in caspase3/7 activity at 15 uM using Ac-DEVD-ACC as substrate pretreated for 24 hrs followed by substrate addition measured for 2 hrs by fluorescence assay relative to control; format: functional
[19] = test system: LoVo/DX; assay: Induction of apoptosis in human LoVo/DX cells assessed as increase in caspase3/7 activity at >15 uM using Ac-DEVD-ACC as substrate pretreated for 24 hrs followed by substrate addition measured for 2 hrs by fluorescence assay; format: functional, cell-based
[20] = test system: LoVo; assay: Induction of apoptosis in human LoVo cells assessed as increase in caspase3/7 activity at >15 uM using Ac-DEVD-ACC as substrate pretreated for 24 hrs followed by substrate addition measured for 2 hrs by fluorescence assay; format: functional, cell-based
[21] = test system: LoVo; assay: Induction of apoptosis in human LoVo cells assessed as loss of mitochondrial membrane potential at 15 uM after 24 hrs by JC-1 staining based flow cytometric method relative to control; format: functional
[22] = Induction of apoptosis in human LoVo/DX cells assessed as loss of mitochondrial membrane potential at 15 uM after 24 hrs by JC-1 staining based flow cytometric method relative to control; format: functional
[23] = test system: LoVo; assay: Induction of apoptosis in human LoVo cells assessed as late apoptotic cells at 15 uM after 24 hrs by APC-Annexin-V/propidium iodide staining based flow cytometric method relative to control; format: functional
[24] = test system: LoVo/DX; assay: Induction of apoptosis in human LoVo/DX cells assessed as late apoptotic cells at 15 uM after 24 hrs by APC-Annexin-V/propidium iodide staining based flow cytometric method relative to control; format: functional
[25] = test system: LoVo; assay: Induction of apoptosis in human LoVo cells assessed as increase in early apoptotic cells at 15 uM after 24 hrs by APC-Annexin-V/propidium iodide staining based flow cytometric method relative to control; format: functional
[26] = test system: LoVo; assay: Induction of apoptosis in human LoVo cells assessed as necrotic cells at 15 uM after 24 hrs by APC-Annexin-V/propidium iodide staining based flow cytometric method (reference value: 10%); format: functional
[27] = test system: 4T1; assay: Anti-tumor activity against mouse 4T1 cells implanted in BALB/c mdb mouse assessed as tumor growth inhibition at 300 umol/kg, ip administered five times weekly measured on day 29 post cell innoculum relative to control; format: functional; conditions: 4T1, ip, 696 h, read-out: TGI
[28] = test system: 4T1; assay: Anti-tumor activity against mouse 4T1 cells implanted in BALB/c mdb mouse assessed as tumor growth inhibition at 300 umol/kg, ip administered five times weekly measured on day 15 post cell innoculum relative to control; format: functional; conditions: 4T1, ip, 360 h, read-out: TGI
[29] = test system: Mus musculus; assay: Toxicity in BALB/c mdb mouse implanted with mouse 4T1 cells assessed as body weight loss at 300 umol/kg, ip administered five times weekly measured 3 times weekly during compound dosing; format: organism-based; conditions: in vivo
[30] = test system: Mus musculus; assay: Hepatotoxicity in BALB/c mdb mouse implanted with mouse 4T1 cells assessed as liver weight at 300 umol/kg, ip administered five times weekly measured at 29 day post cell innoculum (reference value: 1.2 +/- 0.13 g); format: toxicity, organism-based; conditions: in vivo, 696 h
[31] = test system: Mus musculus; assay: Nephrotoxicity in BALB/c mdb mouse implanted with mouse 4T1 cells assessed as kidney weight at 300 umol/kg, ip administered five times weekly measured at 29 day post cell innoculum (reference value: 0.136 +/- 0.006 g); format: toxicity, organism-based; conditions: in vivo, 696 h
[32] = test system: Mus musculus; assay: Toxicity in BALB/c mdb mouse implanted with mouse 4T1 cells assessed as spleen weight at 300 umol/kg, ip administered five times weekly measured at 29 day post cell innoculum (reference value: 0.603 +/- 0.133 g); format: organism-based; conditions: in vivo, 696 h
[33] = test system: Mus musculus; assay: Toxicity in BALB/c mdb mouse implanted with mouse 4T1 cells assessed as lung weight at 300 umol/kg, ip administered five times weekly measured at 29 day post cell innoculum (reference value: 0.2 +/- 0.018 g); format: organism-based; conditions: in vivo, 696 h
[34] = test system: 4T1; assay: Anti-tumor activity against mouse 4T1 cells implanted in BALB/c mdb mouse assessed as lung metastasis at 300 umol/kg, ip administered five times weekly measured at 29 days post cell innoculum (reference value: 56 +/- 25); format: functional
[35] = test system: Mus musculus; assay: Toxicity in BALB/c mdb mouse implanted with mouse 4T1 cells assessed as WBC level at 300 umol/kg, ip administered five times weekly measured at 29 day post cell innoculum (reference value: 212.3 +/- 82.8 10^3/uL); format: organism-based; conditions: in vivo, 696 h
[36] = test system: Mus musculus; assay: Toxicity in BALB/c mdb mouse implanted with mouse 4T1 cells assessed as RBC level at 300 umol/kg, ip administered five times weekly measured at 29 day post cell innoculum (reference value: 8.6 +/- 0.9 10^6/uL); format: organism-based; conditions: in vivo, 696 h
[37] = test system: Mus musculus; assay: Toxicity in BALB/c mdb mouse implanted with mouse 4T1 cells assessed as hemoglobin level at 300 umol/kg, ip administered five times weekly measured at 29 day post cell innoculum (reference value: 15.1 +/- 1.5 g/dl); format: organism-based; conditions: in vivo, 696 h
[38] = test system: Mus musculus; assay: Toxicity in BALB/c mdb mouse implanted with mouse 4T1 cells assessed as hematocrit at 300 umol/kg, ip administered five times weekly measured at 29 day post cell innoculum (reference value: 39.9 +/- 3.7 %); format: organism-based; conditions: in vivo, 696 h
[39] = test system: Mus musculus; assay: Toxicity in BALB/c mdb mouse implanted with mouse 4T1 cells assessed as serum PLT level at 300 umol/kg, ip administered five times weekly measured at 29 day post cell innoculum (reference value: 972 +/- 157 10^3/uL); format: organism-based; conditions: in vivo, 696 h
[40] = test system: Mus musculus; assay: Toxicity in BALB/c mdb mouse implanted with mouse 4T1 cells assessed as serum ALT level at 300 umol/kg, ip administered five times weekly measured at 29 day post cell innoculum (reference value: 23.8 +/- 2.2 U/L); format: organism-based; conditions: in vivo, 696 h
[41] = test system: Mus musculus; assay: Toxicity in BALB/c mdb mouse implanted with mouse 4T1 cells assessed as serum AST level at 300 umol/kg, ip administered five times weekly measured at 29 day post cell innoculum (reference value: 136 +/- 10.3 U/L); format: organism-based; conditions: in vivo, 696 h
[42] = test system: Mus musculus; assay: Toxicity in BALB/c mdb mouse implanted with mouse 4T1 cells assessed as serum creatinine level at 300 umol/kg, ip administered five times weekly measured at 29 day post cell innoculum (reference value: 9.3 +/- 1.2 umol/L); format: organism-based; conditions: in vivo, 696 h
[43] = test system: Mus musculus; assay: Toxicity in BALB/c mdb mouse implanted with mouse 4T1 cells assessed as serum urea level at 300 umol/kg, ip administered five times weekly measured at 29 day post cell innoculum (reference value: 3.8 +/- […]); format: organism-based; conditions: in vivo, 696 h
[44] = test system: LoVo; assay: Cytotoxicity against human LoVo cells assessed as cell death at >15 uM after 24 hrs; format: cell-based

For CC(C)OP(=O)(CCCCCCN=C=S)OC(C)C, the Activity [1] was “Toxic”, the “Ratio IC50” value [2] was 10 and the “Ratio IC50” value [3] was 5. For the same compound, the IC50 [4] was 2.9 µM, the IC50 [5] was 4 µM and the “Ratio IC50” value [6] was 1.4. The IC50 [7] was 2.7 µM, the IC50 [8] was 9.4 µM and the “Ratio IC50” value [9] was 3.5. The IC50 [10] was 11.7 µM, the IC50 [11] was 10 µM and the IC50 [12] was 2.5 µM. For the same compound, the IC50 [13] was 9.5 µM, the IC50 [14] was 5.8 µM and the Activity [15] was “inactive”. The Activity [16] was “inactive”, the “fold change (FC)” value [17] was 2.2 and the “fold change (FC)” value [18] was 3. The Activity [19] was “inactive”, the Activity [20] was “inactive” and the Activity [21] was 35%. The Activity [22] was 35%, the Activity [23] was “Active” and the Activity [24] was “Active”. The Activity [25] was “inactive”, the Activity [26] was “Active” and the inhibition in vivo at 300 µmol/kg [27] was -0.2%. The inhibition in vivo at 300 µmol/kg [28] was 40.4 to 41%, the Activity [29] was “<= 10%” and the Activity [30] was 1.32 g. It also gave an Activity [31] of 0.147 g, an Activity [32] of 0.535 g and an Activity [33] of 0.222 g. For the same compound, the Activity [34] was 49, the Activity [35] was 259.1 ×10³ /uL and the Activity [36] was 10 ×10⁶ /uL. For the same compound, the Activity [37] was 18.2 g/dL, the Activity [38] was 49.6% and the Activity [39] was 767 ×10³ /uL. The Activity [40] was 26.6 U/L, the Activity [41] was 163.3 U/L and the Activity [42] was 7.1 µmol/L. For the same compound, the Activity [43] was 4.7 mmol/L and the Activity [44] was “Toxic”.
